Series [1] relates to Chang liver cell line. As to the kind of experiment: Cytotoxicity assay (Cytell Cell Imaging), normal cell line. Format: cell-based. Particulars: Homo sapiens, read-out: IC50 Normal Cell Line Chang Liver.
The test system of series [2] is M-Hela. The series can be described thus: Cytotoxicity assay (Cytell Cell Imaging, DAPI/propidium iodide), cancer cell line. Format: cell-based. The settings on record: Homo sapiens, M-HeLa, read-out: IC50 Cancer Cell Line M-Hela.

Turning to `Cc1cc(O)c(C2CCCN2C(=O)Nc2ccc(F)cc2)c(=O)o1` (stereo not drawn) [7e, N-(4-Fluorophenyl)-2-(4-hydroxy-6-methyl-2-oxo-2H-pyran-3-yl)pyrrolidine-1-carboxamide], the melting point (usually the temperature, or range, at which the solid turns liquid) was in the range of 177 to 178 °C. Also, in series [1], the IC50 (usually the concentration at which inhibition is half-maximal) is above 100 µM. Also, the IC50 in series [2] was above 100 µM.

In the case of `CCCCCCNC(=O)N1CCCC1c1c(O)cc(C)oc1=O` (stereo not drawn) [7f, N-Hexyl-2-(4-hydroxy-6-methyl-2-oxo-2H-pyran-3-yl)pyrrolidine-1-carboxamide], the melting point lay within 137 to 138 °C. For the same molecule, the IC50 in series [1] is above 100 µM. In addition, the IC50 in series [2] is above 100 µM.

Molecule `Cc1cc(O)c(C2CCCN2C(=O)NC2CCCCC2)c(=O)o1` (stereo not drawn) [7g, N-Cyclohexyl-2-(4-hydroxy-6-methyl-2-oxo-2H-pyran-3-yl)pyrrolidine-1-carboxamide] had a melting point of 184 to 185 °C. For the same molecule, the IC50 in series [1] is above 100 µM. Besides, in series [2], the IC50 is above 100 µM.

`O=C(Nc1ccccc1)N1CCCC1c1c(O)c2ccccc2oc1=O` (stereo not drawn) [8b, 2-(4-Hydroxy-2-oxo-2H-chromen-3-yl)-N-phenylpyrrolidine-1-carboxamide] registered a melting point of 179 to 180 °C. Further, in series [1], the IC50 was above 100 µM. Besides, the IC50 in series [2] was above 100 µM.

In turn, `COc1ccc(NC(=O)N2CCCC2c2c(O)c3ccccc3oc2=O)cc1` (stereo not drawn) [8c, 2-(4-Hydroxy-2-oxo-2H-chromen-3-yl)-N-(4-methoxyphenyl)pyrrolidine-1-carboxamide] showed a melting point of 152 to 153 °C. In addition, the IC50 in series [1] was above 100 µM. Further, the IC50 in series [2] was above 100 µM.

As to `O=C(Nc1ccc(Br)cc1)N1CCCC1c1c(O)c2ccccc2oc1=O` (stereo not drawn) [8d, N-(4-Bromophenyl)-2-(4-hydroxy-2-oxo-2H-chromen-3-yl)pyrrolidine-1-carboxamide], the melting point was determined as 179 °C. In addition, the half-maximal inhibitory concentration (IC50) in series [1] is above 100 µM. In addition, the IC50 in series [2] is above 100 µM.

In turn, `O=C(Nc1ccc(F)cc1)N1CCCC1c1c(O)c2ccccc2oc1=O` (stereo not drawn) [8e, N-(4-Fluorophenyl)-2-(4-hydroxy-2-oxo-2H-chromen-3-yl)pyrrolidine-1-carboxamide] displayed a melting point of 165 °C. Besides, the IC50 in series [1] was above 100 µM. Also, the IC50 in series [2] is above 100 µM.

`CCCCCCNC(=O)N1CCCC1c1c(O)c2ccccc2oc1=O` (stereo not drawn) [8f, N-Hexyl-2-(4-hydroxy-2-oxo-2H-chromen-3-yl)pyrrolidine-1-carboxamide] registered a melting point of 124 to 125 °C. In addition, the IC50 in series [1] was above 100 µM. In series [2], the half-inhibitory concentration (IC50) is above 100 µM.

On to `O=C(NC1CCCCC1)N1CCCC1c1c(O)c2ccccc2oc1=O` (stereo not drawn) [8g, N-Cyclohexyl-2-(4-hydroxy-2-oxo-2H-chromen-3-yl)pyrrolidine-1-carboxamide], for which the melting point fell in the range of 166 to 167 °C. In addition, the half-maximal inhibitory concentration (IC50) in series [1] was above 100 µM. In addition, the IC50 in series [2] is above 100 µM.

The values are drawn from publication PMC6749236, “Synthesis of Novel 2-(Het)arylpyrrolidine Derivatives and Evaluation of Their Anticancer and Anti-Biofilm Activity” (Molecules, 2019).
